Laboratory results taken from patent US20260015360A1 (MOMA Therapeutics, Inc., priority 2023, published 2026).
Like-named read-outs stand apart in the source and are kept apart here.

Assays:
DLD1 WT cells = test: DLD1 viability assay (CellTiter-Glo, 7 days), DLD1 WT; format: cell-based
Experimental: (§1) The seeding densities are pre-determined from the growth curve kinetics performed to ensure log linear phase of cell growth for these 2 cell lines. These assay plates are then placed in the incubator at 37° C., 5% CO2, relative humidity>90% for a few hours before addition of test compounds. Compounds are dispensed using the Tecan HPD300 or Echo based on the plate map in the appropriate wells of the 384-well plates. […] After addition of the test compounds, the plates are incubated at 37° C., 5% CO2, relative humidity>90% for 7 days. CellTiter-Glo (Promega Cat. No. G7573), ATP detection reagent is prepared according to manufacturer's specifications. Cell assay plates are removed from incubator and bring to room temperature (RT) by letting them sit at bench top for at least 15 min. Using the MultiDrop liquid handler or a multichannel pipette, 35 μL/well of CTG is added and the plates are then placed shakes for 5 seconds, RT. These plates are then incubated for 30 minutes in the dark at RT before measuring luminescence using Spectramax/Enspire/Ensight/Envision/PheraSTAR.

DLD1 BRCA2 (−/−) cells = test: DLD1 viability assay (CellTiter-Glo, 7 days), DLD1 BRCA2 (−/−); format: cell-based; conditions: read-out: Viability IC50 (μM) DLD1 BRCA2 null
Experimental: as §1

Row | IC50 (DLD1 WT cells; Homo sapiens, DLD-1, 168 h) | IC50 (DLD1 BRCA2 (−/−) cells; Homo sapiens, DLD-1, 168 h) | IC50 (DLD1 BRCA2 (−/−) cells) | IC50 (DLD1 WT cells) | Compound
1 | > 10 µM | 0.001 to 0.1 µM |  |  | COc1cnc(Cl)cc1-c1cc(C)ncc1C(=O)Nc1nc2ncc(C3=CCC(O)(C(F)(F)F)CC3)nc2s1 (single isomer, unassigned) [Example 413, 2′-chloro-N-(6-(4-hydroxy-4-(trifluoromethyl)cyclohex-1-en-1-yl)thiazolo[4,5-b]pyrazin-2-yl)-5′-methoxy-6-methyl-[4,4′-bipyridine]-3-carboxamide]
2 | > 10 µM | 0.001 to 0.1 µM |  |  | COc1cnc(Cl)cc1-c1cc(C)ncc1C(=O)Nc1nc2ncc([C@H]3CCO[C@H](C)C3)nc2s1 (single isomer, unassigned) [Example 431, 2′-chloro-5′-methoxy-6-methyl-N-(6-((2R or S,4S or R)-2-methyltetrahydro-2H-pyran-4-yl)thiazolo[4,5-b]pyrazin-2-yl)-[4,4′-bipyridine]-3-carboxamide]
3 | > 10 µM | 0.001 to 0.1 µM |  |  | COc1cnc(Cl)cc1-c1cc(C)ncc1C(=O)Nc1nc2ncc([C@H]3CCO[C@@H](C)C3)nc2s1 (single isomer, unassigned) [Example 434A, 2′-chloro-5′-methoxy-6-methyl-N-(6-((2S or R,4S or R)-2-methyltetrahydro-2H-pyran-4-yl)thiazolo[4,5-b]pyrazin-2-yl)-[4,4′-bipyridine]-3-carboxamide]
4 | > 10 µM | 0.001 to 0.1 µM |  |  | COc1cnc(Cl)cc1-c1cc(C)ncc1C(=O)Nc1nc2ncc([C@@H]3CCO[C@H](C)C3)nc2s1 (single isomer, unassigned) [Example 435, 2′-chloro-5′-methoxy-6-methyl-N-(6-((2R or S,4R or S)-2-methyltetrahydro-2H-pyran-4-yl)thiazolo[4,5-b]pyrazin-2-yl)-[4,4′-bipyridine]-3-carboxamide]
5 | 0.001 to 2.5 µM | 0.001 to 0.1 µM |  |  | COc1cnc(Cl)cc1-c1cc(C)ncc1C(=O)Nc1nc2ncc(N3CC[C@H](OC)C(F)(F)C3)nc2s1 (single isomer, unassigned) [Example 441, (S or R)-2′-chloro-N-(6-(3,3-difluoro-4-methoxypiperidin-1-yl)thiazolo[4,5-b]pyrazin-2-yl)-5′-methoxy-6-methyl-[4,4′-bipyridine]-3-carboxamide]
6 | > 10 µM | 0.001 to 0.1 µM |  |  | COc1cnc(Cl)cc1-c1cc(C)ncc1C(=O)Nc1nc2ncc(N3CCC(OC)C(F)(F)C3)nc2s1 (single isomer, unassigned) [Example 444, (R or S)-2′-chloro-N-(6-(3,3-difluoro-4-methoxypiperidin-1-yl)thiazolo[4,5-b]pyrazin-2-yl)-5′-methoxy-6-methyl-[4,4′-bipyridine]-3-carboxamide]
7 | > 10 µM |  | 0.1 to 0.25 µM |  | COc1cnc(Cl)cc1-c1cc(C)ncc1C(=O)Nc1nc2ncc(N3CCC(O)C(F)(F)C3)nc2s1 (single isomer, unassigned) [Example 457, (S or R)-2′-chloro-N-(6-(3,3-difluoro-4-hydroxypiperidin-1-yl)thiazolo[4,5-b]pyrazin-2-yl)-5′-methoxy-6-methyl-[4,4′-bipyridine]-3-carboxamide]
8 |  |  | 0.001 to 0.1 µM | > 10 µM | COc1cnc(Cl)cc1-c1cc(C)ncc1C(=O)Nc1nc2ncc(N3CCC(O)C(F)(F)C3)nc2s1 (single isomer, unassigned) [Example 458, (R or S)-2′-chloro-N-(6-(3,3-difluoro-4-hydroxypiperidin-1-yl)thiazolo[4,5-b]pyrazin-2-yl)-5′-methoxy-6-methyl-[4,4′-bipyridine]-3-carboxamide]
9 | 7.5 to 10 µM | 0.5 to 2 µM |  |  | COc1ccccc1-c1cc(C)ncc1C(=O)Nc1nc2ccc(N3CCCCC3)cc2s1 [Example 91, 4-(2-Methoxyphenyl)-6-methyl-N-(6-(piperidin-1-yl)benzo[d]thiazol-2-yl)nicotinamide]
10 | > 10 µM | 0.1 to 0.25 µM |  |  | COc1nnc(C(F)F)cc1-c1cc(C)ncc1C(=O)Nc1nc2ncc(-c3ccnc(C)c3)nc2s1 [Example 384, 4-(6-(difluoromethyl)-3-methoxypyridazin-4-yl)-6-methyl-N-(6-(2-methylpyridin-4-yl)thiazolo[4,5-b]pyrazin-2-yl)nicotinamide]
11 | > 10 µM | 0.001 to 0.1 µM |  |  | COc1cnc(Cl)cc1-c1cc(C)ncc1C(=O)Nc1nc2ncc(C3=CCC(OC)(C(F)F)CC3)nc2s1 (centres unmarked) [Example 388, 2′-chloro-N-(6-(4-(difluoromethyl)-4-methoxycyclohex-1-en-1-yl)thiazolo[4,5-b]pyrazin-2-yl)-5′-methoxy-6-methyl-[4,4′-bipyridine]-3-carboxamide]
12 | > 10 µM | 0.001 to 0.1 µM |  |  | COc1cnc(Cl)cc1-c1cc(C)ncc1C(=O)Nc1nc2ncc(C3CCOC(C)(C)C3)nc2s1 (centres unmarked) [Example 389, 2′-chloro-N-(6-(2,2-dimethyltetrahydro-2H-pyran-4-yl)thiazolo[4,5-b]pyrazin-2-yl)-5′-methoxy-6-methyl-[4,4′-bipyridine]-3-carboxamide]
13 | > 10 µM | 0.001 to 0.1 µM |  |  | COc1cnc(Cl)cc1-c1cc(C)ncc1C(=O)Nc1nc2ncc(C3=CCC(O)(C(F)F)CC3)nc2s1 (centres unmarked) [Example 396, 2′-chloro-N-(6-(4-(difluoromethyl)-4-hydroxycyclohex-1-en-1-yl)thiazolo[4,5-b]pyrazin-2-yl)-5′-methoxy-6-methyl-[4,4′-bipyridine]-3-carboxamide]
14 | > 10 µM | 0.001 to 0.1 µM |  |  | COc1cnc(Cl)cc1-c1cc(C)ncc1C(=O)Nc1nc2ncc(C3CCC(OC(F)F)CC3)nc2s1 (centres unmarked) [Example 398, 2′-chloro-N-(6-(4-(difluoromethoxy)cyclohexyl)thiazolo[4,5-b]pyrazin-2-yl)-5′-methoxy-6-methyl-[4,4′-bipyridine]-3-carboxamide]
15 | > 10 µM | 0.001 to 0.1 µM |  |  | COc1cnc(Cl)cc1-c1cc(C)ncc1C(=O)Nc1nc2ncc(C3=CCC(OC(F)F)CC3)nc2s1 (centres unmarked) [Example 405, 2′-chloro-N-(6-(4-(difluoromethoxy)cyclohex-1-en-1-yl)thiazolo[4,5-b]pyrazin-2-yl)-5′-methoxy-6-methyl-[4,4′-bipyridine]-3-carboxamide]
16 | > 10 µM | 0.001 to 0.1 µM |  |  | COc1cnc(Cl)cc1-c1cc(C)ncc1C(=O)Nc1nc2ncc(C3=CCC(C)(C#N)CC3)nc2s1 (centres unmarked) [Example 407, 2′-chloro-N-(6-(4-cyano-4-methylcyclohex-1-en-1-yl)thiazolo[4,5-b]pyrazin-2-yl)-5′-methoxy-6-methyl-[4,4′-bipyridine]-3-carboxamide]
17 | > 10 µM | 0.001 to 0.1 µM |  |  | COc1cnc(Cl)cc1-c1cc(C)ncc1C(=O)Nc1nc2ncc(N3C[C@@H](C)OC[C@H]3C)nc2s1 [Example 409, 2′-chloro-N-(6-((2R,5R)-2,5-dimethylmorpholino)thiazolo [4,5-b]pyrazin-2-yl)-5′-methoxy-6-methyl-[4,4′-bipyridine]-3-carboxamide]
18 | > 10 µM | 0.001 to 0.1 µM |  |  | COc1cnc(Cl)cc1-c1cc(C)ncc1C(=O)Nc1nc2ncc(C3CCC(C)(C#N)CC3)nc2s1 (centres unmarked) [Example 410, 2′-chloro-N-(6-(4-cyano-4-methylcyclohexyl)thiazolo[4,5-b]pyrazin-2-yl)-5′-methoxy-6-methyl-[4,4′-bipyridine]-3-carboxamide]

Row | Compound | IC50 (DLD1 WT cells; Homo sapiens, DLD-1, 168 h) | IC50 (DLD1 BRCA2 (−/−) cells; Homo sapiens, DLD-1, 168 h) | IC50 (DLD1 BRCA2 (−/−) cells) | IC50 (DLD1 WT cells)
19 | COc1cnc(Cl)cc1-c1cc(C)ncc1C(=O)Nc1nc2ncc(C3CCC(OC)(C(F)F)CC3)nc2s1 (centres unmarked) [Example 383, 2′-chloro-N-(6-(4-(difluoromethyl)-4-methoxycyclohexyl)thiazolo [4,5-b]pyrazin-2-yl)-5′-methoxy-6-methyl-[4,4′-bipyridine]-3-carboxamide] | > 10 µM | 0.001 to 0.1 µM |  | 
